Laboratory results taken from US5130483A, “Isoprenoid derivatives and pharmaceutical preparations containing the same” (Terumo Kabushiki Kaisha, priority 1987, dated 1992).

Experiments:
[1] = molecular target: T1, 5-lipoxygenase (Rattus norvegicus, UniProt P12527); assay: 5-Lipoxygenase-inhibiting activity (Test Example 2, radiolabeled arachidonic acid, TLC of 5-HETE); format: biochemical; conditions: RBL-1 cell supernatant, pH 7.4, 37° C., 15 min, radio-TLC of 5-HETE, read-out: 50% Inhibitory concentration
T1 construct: The supernatant is employed as an enzyme solution of a 5-lipoxygenase; endogenous in cells; host or cells: RBL-1 rat basophilic leukemia cells, sonicated, 15,000 rpm supernatant (crude, not purified)
T1 sequence (P12527 1-673): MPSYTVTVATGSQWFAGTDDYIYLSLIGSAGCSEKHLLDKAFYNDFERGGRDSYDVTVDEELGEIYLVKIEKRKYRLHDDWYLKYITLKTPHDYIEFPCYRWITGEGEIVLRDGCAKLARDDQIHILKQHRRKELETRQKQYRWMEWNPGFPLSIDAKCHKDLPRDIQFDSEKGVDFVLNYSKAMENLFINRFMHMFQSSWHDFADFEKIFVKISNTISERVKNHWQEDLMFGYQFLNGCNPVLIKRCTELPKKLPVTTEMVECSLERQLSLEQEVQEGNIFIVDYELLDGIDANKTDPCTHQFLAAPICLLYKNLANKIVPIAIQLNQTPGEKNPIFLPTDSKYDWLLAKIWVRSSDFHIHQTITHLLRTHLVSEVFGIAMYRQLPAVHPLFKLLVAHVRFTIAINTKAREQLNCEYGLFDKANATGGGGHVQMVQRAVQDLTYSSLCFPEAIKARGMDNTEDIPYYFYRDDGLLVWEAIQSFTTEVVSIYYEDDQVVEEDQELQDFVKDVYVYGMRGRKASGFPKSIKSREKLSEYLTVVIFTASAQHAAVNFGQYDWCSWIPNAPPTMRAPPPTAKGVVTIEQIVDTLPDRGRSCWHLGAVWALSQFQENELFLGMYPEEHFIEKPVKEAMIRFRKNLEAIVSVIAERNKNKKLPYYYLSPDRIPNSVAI
Method: A suspension of rat-origin basophilic leukemia cell strain RBL-1 in an Eagle basal medium (manufactured by Gbco Laboratories) containing 10 % FCS is cultivated in a 5% CO2 incubator at 37° C. The culture is then centrifuged at 4° C. to collect cells. The cells are re-suspended in a phosphate buffer solution at pH 7.4 to a cell density of 1.0 -3.0×10^7 cells/ml. The suspended cells are treated by an ultrasonic cell blender and then centrifuged at 15,000 rpm at 4° C. for 30 min. The supernant is employed as an enzyme solution of a 5-lipoxygenase. In test tubes are placed 20 μl of radiolabeled arachidonic acid (10 μl Ci/ml) and an isoprenoid derivative of the invention to be tested. To each of the test tubes are added 0.40 ml of phosphate buffer, 0.10 ml of the enzyme solution as prepared above and […] of a 100 mM CaCl2 (calcium chloride). The mixture is allowed to react at 37° C. for 15 min. To the reaction mixture, after ice-cooling, is added one drop of 1N HCl (hydrochloric acid), and the resulting mass is extracted with 2 ml of ethyl acetate. The extract is concentrated, and the concentrate is spotted and developed on a silica gel thin layer plate (Merck 60F254). Measurement of the inhibitory activity is accomplished by collecting the portion corresponding to 5-HETE (5-(s)-hydroxy-6,8,11,14-eicosatetraenoic acid), a 5-lipoxygenase product detected by a radio-thin layer chromatogram scanner (Dunnschicht-Scanner II LB2723, manufactured by Berthold) and measuring radioactivity by a liquid scintillation counter. The 5-lipoxygenase-inhibiting activity is determined by decrease in the production of said 5-lipoxygenase product.
(§1) 50% inhibitory concentration as referred to in Tables 1 and 2 means concentration of an isoprenoid derivative required for controlling the production of […] as described above to 50% by introducing said isoprenoid derivative when production of 5-HETE without isoprenoid derivative of the invention is taken as 100%.

[2] = molecular target: T1, 5-lipoxygenase; assay: 5-Lipoxygenase-inhibiting activity (Test Example 1, HPLC of 5-HETE); format: biochemical; conditions: RBL-1 cell supernatant; 50 μg arachidonic acid; pH 7.4; 37° C., 15 min; HPLC peak of 5-HETE; read-out: 50% Inhibitory concentration
Method: A suspension of rat-origin basophilic leukemia cell strain RBL-1 in an Eagle basal medium (manufactured by Gibco Laboratories) containing 10% FCS is cultivated in an 5% CO2 incubator at 37° C. The culture is then centrifuged at 4° C. to collect cells. The cells are re-suspended in a phosphate buffer solution at pH 7.4 to a cell density of 1.0-3.0×10^7 cells/ml. The suspended cells are treated by an ultrasonic cell blender and then centrifuged at 15,000 rpm at 4° C. for 30 min. The supernatant is employed as an enzyme solution of a 5-lipoxygenase. In test tubes are placed 50 μg of arachdonic acid and an isoprenoid derivative of the invention to be tested. To each of the test tubes are added 0.30 ml of phosphate buffer, 0.20 ml of the enzyme solution as prepared above and 5 μl of a 100 mM CaCl2 (calcium chloride) solution. The mixture is allowed to react at 37° C. for 15 min. To the reaction mixture, after ice-cooling, is added one drop of 1N HCl (hydrochloric acid), and the resulting mass is extracted with 2 ml of ethyl acetate. The extract is concentrated to dryness followed by addition of 100 μl of methanol for use as a test specimen.
Said specimen is injected into octadecylsilane (ODS) reverse phase high performance liquid chromatography (HPLC), eluted with methanol - acetonitrile - water - acetic acid (15 : 45 : 35 : 0.01). Peak for 5-HETE (5-(s)-hydroxy-6,8,11,14-eicosatetraenoic acid), a 5-lipoxygenase product detected in approximately 25 min. is measured. The 5-lipoxygenase-inhibiting activity is determined by decrease in the peak for said 5-lipoxygenase product.
as §1

[3] = test system: stomach lesions (ulcer index) in male Wistar rats; assay: Anti-ulcer activity (ethanol-hydrochloric acid gastric lesions); format: in vivo, rat (male Wistar); conditions: 100 mg/kg, oral, 1 h before ethanol-hydrochloric acid; male Wistar rats fasted 24 h
Method: To male Wistar rats (weighing 150-200 g) fasted for 24 hours was administered orally an isoprenoid derivative of the invention. One hour later, ethanol-hydrochloric acid (containing 150 mM hydrochloric acid in 60% ethanol) was orally given in a volume of 0.5 ml/100 g bodyweight.
One hour later, the animals were sacrificed with ether. The stomach was excised and, after formalin treatment, measured for the length (mm) of lesions developed in glandular portions of the stomach. Total length of the lesions per animal was taken as ulcer index.
Percent inhibition of ulceration as referred to in the table is a value indicating the ulcer index for the rat without an isoprenoid derivative of the invention orally given minus the ulcer index for the orally administered rat divided by the ulcer index for the orally non-administered rat multiplied by 100.

SMILES | IC50 [1] [nM] | IC50 [2] [nM] | Percent inhibition of ulceration [3] [%]
COc1cc(/C=C/C(=O)OCC=C(C)C)ccc1O [Example 5, prenyl 4-hydroxy-3-methoxycinnamate] | 3000 | – | –
COc1cc(/C=C/C=C/C(=O)OCC=C(C)C)ccc1O [Example 6, prenyl 5-(3-methoxy-4-hydroxyphenyl)-2,4-pentadienoate] | 400 | – | –
CC(C)=CCOC(=O)/C=C/C=C/c1ccc(O)c(O)c1 [Example 7, prenyl 5-(3,4-dihydroxyphenyl)-2,4-pentadienoate] | 26 | – | –
CC(C)=CCC/C(C)=C/COC(=O)/C=C/C=C/c1ccc(O)c(O)c1 [Example 9, geranyl 5-(3,4-dihydroxyphenyl)-2,4-pentadienoate] | 260 | – | –
CC(C)=CCC/C(C)=C/CNC(=O)/C=C/C=C/c1ccc(O)c(O)c1 [Example 15, 5-(3',4'-dihydroxyphenyl)pentadienoic acid geranylamide] | 11 | – | –
CC(C)=CCCC(=O)/C=C/c1ccc(O)c(O)c1 [Example 4, 1-(3',4'-dihydroxyphenyl)-7-methyl-1,6-octadien-3-one] | – | 80 | –
COc1cc(/C=C/C=C/C(=O)NC/C=C(\C)CCC=C(C)C)ccc1O [Example 12, 5-(4'-hydroxy-3-methoxyphenyl)pentadienoic acid geranylamide] | 83 | – | –
COc1cc(/C=C/C=C/C(=O)NC/C=C(\C)CC/C=C(\C)CCC=C(C)C)ccc1O [Example 13, 5-(4'-hydroxy3'-methoxyphenyl)pentadienoic acid (E,E)-farnesylamide] | 310 | – | –
COc1cc(/C=C/C=C/C(=O)OC/C=C(\C)CCC=C(C)C)ccc1O [Example 8, geranyl 5-(4-hydroxy-3-methoxyphenyl)-2,4-pentadienoate] | 1200 | – | –
COc1cc(/C=C/C=C/C(=O)CC/C=C(\C)CC/C=C(\C)CCC=C(C)C)ccc1O [Example 3, 1-(4'-hydroxy-3'-methoxyphenyl)-9,13,17-trimethyl-1,3,8,12,16-octadecapentaen-5-one] | – | 800 | 85.0
COc1cc(/C=C/C(=O)NC/C=C(\C)CCC=C(C)C)ccc1O [Example 14, 4-hydroxy-3-methoxycinnamic acid geranylamide] | 920 | – | –
COc1cc(/C=C/C=C/C(=O)CCC=C(C)C)ccc1O [Example 1, 1-(4'-hydroxy-3'-methoxyphenyl)-9-methyl-1,3,8-decatrien-5-one] | – | 500 | 79.3
COc1cc(/C=C/C=C/C(=O)NCC=C(C)C)ccc1O [Example 11, 5-(4'-hydroxy-3'methoxyphenyl)pentadienoic acid prenylamide] | 650 | – | –
COc1cc(/C=C/C=C/C(=O)CC/C=C(\C)CCC=C(C)C)ccc1O [Example 2, 9,13-dimethyl-1-(4'-hydroxy-3'-methoxyphenyl)-1,3,8,12-tetradecatetraen-5-one] | – | 380 | 94.6
